Data published in US12344615B2, “Substituted pyridines as ion channel modulators” (PRAXIS PRECISION MEDICINES, INC., priority 2019, dated 2025).

biological target: T1, INaL v1.6 (late sodium current, HEK-293 cells expressing recombinant sodium channels) (Homo sapiens, UniProt Q9UQD0); assay: Inhibition of ATX-II evoked Nav late current (INaL), PatchXpress electrophysiology; format: cell-based; details: HEK293, compound at 1 μM, late current evoked by ATX-II 300 nM
T1 construct: expressed in transfected cells; host or cells: HEK-293
Method: Functional characterization of exemplary compounds to modulate voltage gated sodium currents was accomplished using the PatchXpress™ high throughput electrophysiology platforms (Molecular Devices, Sunnyvale, CA). HEK-293 cells expressing recombinant sodium channels were grown in DMEM/high-glucose Dulbecco's modified, 10% FBS, 2 mM sodium pyruvate, and G418. Nav channel expressing cells were grown to 50%-80% confluency and harvested by trypsinization. Trypsinized cells were washed and resuspended in extracellular buffer at a concentration of 1×10^6 cells/ml. The onboard liquid handling facility of the PatchXpress was used for dispensing cells and application of test compounds. Nav late currents were evoked by the application of ATX-II, 300 nM. Currents were evoked by depolarizing pulses to 0 mV for 200 ms from a non-inactivating holding potential (e.g., −120 mV to −150 mV) at a frequency of 0.1 Hz. Late current amplitude and stability were determined by analyzing the mean current amplitude over the 175-195 msec region of the 200 msec test pulse. Following steady state block with exemplary compounds (e.g., as described herein) at 1 μM, a Na^+ free solution containing an impermeant cation (e.g., Choline or NDMG) was added for determination of the 0 current level. Late current amplitudes for each test condition were determined from the mean of the 175-195 msec region of the 200 msec test pulse. Percent inhibition of steady state currents was calculated as (compound−baseline)/(control−baseline)*100, where control represents INaL recorded in the absence of compound.

T1 sequence (Q9UQD0 whole entry): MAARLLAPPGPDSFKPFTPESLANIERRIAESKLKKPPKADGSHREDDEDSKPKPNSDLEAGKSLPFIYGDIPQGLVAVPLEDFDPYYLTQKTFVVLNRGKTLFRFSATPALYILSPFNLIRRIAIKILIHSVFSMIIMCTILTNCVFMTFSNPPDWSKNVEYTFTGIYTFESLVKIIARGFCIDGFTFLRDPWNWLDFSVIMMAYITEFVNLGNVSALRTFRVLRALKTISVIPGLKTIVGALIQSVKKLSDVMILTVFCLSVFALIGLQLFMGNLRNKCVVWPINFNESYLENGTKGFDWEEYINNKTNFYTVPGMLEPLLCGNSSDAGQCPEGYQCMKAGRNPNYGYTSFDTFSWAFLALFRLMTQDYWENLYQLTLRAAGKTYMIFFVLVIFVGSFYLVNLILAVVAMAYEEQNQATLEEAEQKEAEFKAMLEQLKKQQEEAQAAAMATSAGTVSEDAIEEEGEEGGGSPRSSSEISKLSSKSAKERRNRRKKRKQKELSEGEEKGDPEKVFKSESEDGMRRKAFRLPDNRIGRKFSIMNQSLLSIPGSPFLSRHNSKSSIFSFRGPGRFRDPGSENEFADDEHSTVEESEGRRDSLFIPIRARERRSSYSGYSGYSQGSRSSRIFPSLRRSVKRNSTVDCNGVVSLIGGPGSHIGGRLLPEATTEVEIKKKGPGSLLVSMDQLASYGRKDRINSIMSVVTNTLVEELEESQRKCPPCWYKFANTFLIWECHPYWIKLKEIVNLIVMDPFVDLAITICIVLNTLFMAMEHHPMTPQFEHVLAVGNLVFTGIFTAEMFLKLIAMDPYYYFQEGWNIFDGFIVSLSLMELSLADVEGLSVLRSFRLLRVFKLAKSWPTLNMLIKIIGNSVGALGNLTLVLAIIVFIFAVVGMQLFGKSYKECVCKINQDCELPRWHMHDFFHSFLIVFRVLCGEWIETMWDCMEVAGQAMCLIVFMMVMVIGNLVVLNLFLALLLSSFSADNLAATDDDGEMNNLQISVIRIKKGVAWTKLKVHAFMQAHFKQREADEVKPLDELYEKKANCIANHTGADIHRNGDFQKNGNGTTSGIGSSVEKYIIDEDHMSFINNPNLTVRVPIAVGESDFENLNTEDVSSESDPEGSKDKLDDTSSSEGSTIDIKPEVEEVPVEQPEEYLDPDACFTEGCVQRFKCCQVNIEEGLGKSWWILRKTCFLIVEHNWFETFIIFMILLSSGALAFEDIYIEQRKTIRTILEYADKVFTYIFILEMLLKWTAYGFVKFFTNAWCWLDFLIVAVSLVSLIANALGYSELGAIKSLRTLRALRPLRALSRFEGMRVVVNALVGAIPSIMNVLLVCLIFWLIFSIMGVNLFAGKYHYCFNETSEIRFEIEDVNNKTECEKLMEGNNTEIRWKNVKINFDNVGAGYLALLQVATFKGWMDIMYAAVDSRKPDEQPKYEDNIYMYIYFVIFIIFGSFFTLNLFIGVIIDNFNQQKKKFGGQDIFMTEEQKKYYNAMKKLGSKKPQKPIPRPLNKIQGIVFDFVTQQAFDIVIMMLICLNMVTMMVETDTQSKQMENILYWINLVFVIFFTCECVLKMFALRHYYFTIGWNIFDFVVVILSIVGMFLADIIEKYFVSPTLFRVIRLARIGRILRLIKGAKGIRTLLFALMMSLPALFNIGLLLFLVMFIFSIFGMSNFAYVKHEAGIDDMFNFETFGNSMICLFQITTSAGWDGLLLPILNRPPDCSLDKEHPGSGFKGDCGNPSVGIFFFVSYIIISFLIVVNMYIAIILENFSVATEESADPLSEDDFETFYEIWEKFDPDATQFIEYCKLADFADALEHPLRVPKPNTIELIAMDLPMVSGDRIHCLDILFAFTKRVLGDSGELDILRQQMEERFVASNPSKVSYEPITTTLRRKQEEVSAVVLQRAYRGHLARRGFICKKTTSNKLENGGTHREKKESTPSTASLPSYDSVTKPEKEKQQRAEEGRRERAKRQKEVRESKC

Compound	inhibition at 1 µM
C[C@@H](Oc1ncc(-c2ccc3nnc(C(F)F)n3n2)cc1F)C(F)(F)F [Compound 17, 3-(difluoromethyl)-6-[5-fluoro-6-[(1R)-2,2,2-trifluoro-1-methyl-ethoxy]-3-pyridyl]-[1,2,4]triazolo[4,3-b]pyridazine]	> 75%
CC(C)(Oc1ncc(-c2ccc3nnc(C4CC4(F)F)n3n2)cc1F)C(F)(F)F (stereo not drawn) [Compound 12, 3-(2,2-difluorocyclopropyl)-6-[5-fluoro-6-(2,2,2-trifluoro-1,1-dimethyl-ethoxy)-3-pyridyl]-[1,2,4]triazolo[4,3-b]pyridazine]	> 75%
C[C@H](Oc1ncc(-c2nn3c(C(F)(F)F)nnc3cc2Cl)cc1F)C(F)(F)F [Compound 43, 7-chloro-6-[5-fluoro-6-[(1S)-2,2,2-trifluoro-1-methyl-ethoxy]-3-pyridyl]-3-(trifluoromethyl)-[1,2,4]triazolo[4,3-b]pyridazine]	50 to 75%
Fc1cc(-c2ccc3nnc(C(F)F)n3n2)cnc1OCC1CC1(F)F (stereo not drawn) [Compound 22, 6-[6-[(2,2-difluorocyclopropyl)methoxy]-5-fluoro-3-pyridyl]-3-(difluoromethyl)-[1,2,4]triazolo[4,3-b]pyridazine]	< 50%
Cc1cc2nnc(C(F)(F)F)n2nc1-c1cnc(OC(C)(C)C(F)(F)F)c(F)c1 [Compound 40, 6-[5-fluoro-6-(2,2,2-trifluoro-1,1-dimethyl-ethoxy)-3-pyridyl]-7-methyl-3-(trifluoromethyl)-[1,2,4]triazolo[4,3-b]pyridazine]	> 75%
Fc1cc(-c2cn3c(C(F)(F)F)nnc3cn2)cnc1OCC1CC1(F)F (stereo not drawn) [Compound 29]	50 to 75%
C[C@H](Oc1ncc(-c2cn3c(C4CC(F)(F)C4)nnc3cn2)cc1F)C(F)(F)F [Compound 19, 3-(3,3-difluorocyclobutyl)-6-[5-fluoro-6-[(1S)-2,2,2-trifluoro-1-methyl-ethoxy]-3-pyridyl]-[1,2,4]triazolo[4,3-a]pyrazine]	50 to 75%
CC(C)(Oc1ncc(-c2nn3c(C(F)(F)F)nnc3cc2Cl)cc1F)C(F)(F)F [Compound 41, 7-chloro-6-[5-fluoro-6-(2,2,2-trifluoro-1,1-dimethyl-ethoxy)-3-pyridyl]-3-(trifluoromethyl)-[1,2,4]triazolo[4,3-b]pyridazine]	> 75%
Cc1cc2nnc(C(F)(F)F)n2nc1-c1cnc(O[C@@H](C)C(F)(F)F)c(F)c1 [Compound 44, (S)-6-(5-fluoro-6-((1,1,1-trifluoropropan-2-yl)oxy)pyridin-3-yl)-7-methyl-3-(trifluoromethyl)-[1,2,4]triazolo[4,3-b]pyridazine]	> 75%
Fc1cc(-c2ccc3nnc(C(F)(F)F)n3n2)cnc1OC1CC(F)(F)C1(F)F (stereo not drawn) [Compound 26, 6-[5-fluoro-6-(2,2,3,3-tetrafluorocyclobutoxy)-3-pyridyl]-3-(trifluoromethyl)-[1,2,4]triazolo[4,3-b]pyridazine]	> 75%
Fc1cc(-c2cn3c(C(F)F)nnc3cn2)cnc1OCC1CC1(F)F (single isomer, unassigned) [30 (Isomer 1)]	< 50%
Cc1cc2nnc(C(F)(F)F)n2nc1-c1cnc(O[C@H](C)C(F)(F)F)c(F)c1 [Compound 45, (R)-6-(5-fluoro-6-((1,1,1-trifluoropropan-2-yl)oxy)pyridin-3-yl)-7-methyl-3-(trifluoromethyl)-[1,2,4]triazolo[4,3-b]pyridazine]	50 to 75%
C[C@@H](Oc1ncc(-c2cn3c(C4CC4(F)F)nnc3cn2)cc1F)C(F)(F)F (single isomer, unassigned) [16 (Isomer 1)]	< 50%
Fc1cc(-c2cn3c(C(F)(F)F)nnc3cn2)cnc1OC1(C(F)(F)F)CCC1 [Compound 7, 6-[5-fluoro-6-[1-(trifluoromethyl)cyclobutoxy]-3-pyridyl]-3-(trifluoromethyl)-[1,2,4]triazolo[4,3-a]pyrazine]	> 75%
Fc1cc(-c2ccc3nnc(C(F)(F)F)n3n2)cnc1OC1CC(F)(F)C1(F)F (single isomer, unassigned) [25 (Isomer 1)]	> 75%
C[C@@H](Oc1ccc(-c2nn3c(C(F)(F)F)nnc3cc2Cl)cn1)C(F)(F)F [Compound 47, (R)-7-chloro-3-(trifluoromethyl)-6-(6-((1,1,1-trifluoropropan-2-yl)oxy)pyridin-3-yl)-[1,2,4]triazolo[4,3-b]pyridazine]	50 to 75%

same assay, conditions: compound at 1 μM, late current evoked by ATX-II 300 nM

Compound	INaL v1.6 % Inhibition
C[C@H](Oc1ncc(-c2cn3c(C4CC4(F)F)nnc3cn2)cc1F)C(F)(F)F (single isomer, unassigned) [18 (Isomer 2)]	B (inhibition of 50% to 75%)
C[C@@H](Oc1ncc(-c2cn3c(C4CC4(F)F)nnc3cn2)cc1F)C(F)(F)F (single isomer, unassigned) [16 (Isomer 2)]	B (inhibition of 50% to 75%)
